Biological target: T1, human full-length MKNK1 (Homo sapiens, UniProt Q9BUB5, T385D)
T1 construct: GST (N); purchased Carna Biosciences 02-145; host or cells: insect cells (baculovirus expression system)
Assay: MKNK1 kinase high ATP assay (TR-FRET)
Format: biochemical
Conditions: for IC50: Table 1, MKNK1 kinase high ATP assay, 2 mM ATP, read-out: MKNK1 IC50; for Activity-Ratio MKNK1: Table 2, ratio of the IC50-value of an R-enantiomer and its corresponding S-enantiomer
Procedure: MKNK1 Kinase High ATP Assay
MKNK1-inhibitory activity at high ATP of compounds of the present invention after their preincubation with MKNK1 was quantified employing the TR-FRET-based MKNK1 high ATP assay as described in the following paragraphs.
As substrate for the kinase reaction the biotinylated peptide biotin-Ahx-[…] (C-terminus in amide form) was used, which can be purchased e.g. from the company Biosyntan (Berlin-Buch, Germany).
For the assay 50 nL of a 100 fold concentrated solution of the test compound in DMSO was pipetted into a black low volume 384 well microtiter plate (Greiner Bio-One, Frickenhausen, Germany), 2 μL of a solution of MKNK1 in aqueous assay buffer [50 mM HEPES pH 7.5, 5 mM MgCl2, 1.0 mM dithiothreitol, 0.005% (v/v) Nonidet-P40 (Sigma)] was added and the mixture was incubated for 15 min at 22° C. to allow pre-binding of the test compounds to the enzyme before the start of the kinase reaction. Then the kinase reaction was started by the addition of 3 μL of a solution of adenosine-tri-phosphate (ATP, 3.3 mM=>final conc. in the 5 μL assay volume is 2 mM) and substrate (0.1 μM=>final conc. in the 5 μL assay volume is 0.06 μM) in assay buffer and the resulting mixture was incubated for a reaction time of 30 min at 22° C. The concentration of MKNK1 was adjusted depending of the activity of the enzyme lot and was chosen appropriate to have the assay in the linear range, typical concentrations were in the range of 0.003 μg/mL. The reaction was stopped by the addition of 5 μL of a solution of TR-FRET detection reagents (5 nM streptavidine-XL665 [Cisbio Bioassays, Codolet, France] and 1 nM anti-ribosomal protein S6 (pSer236)-antibody from Invitrogen [#44921G] and 1 nM LANCE EU-W1024 labeled ProteinG [Perkin-Elmer, product no. AD0071]) in an aqueous EDTA-solution (100 mM EDTA, 0.1% (w/v) bovine serum albumin in 50 mM HEPES pH 7.5).
The resulting mixture was incubated for 1 h at 22° C. to allow the formation of complex between the phosphorylated biotinylated peptide and the detection reagents. Subsequently the amount of phosphorylated substrate was evaluated by measurement of the resonance energy transfer from the Eu-chelate to the streptavidine-XL. Therefore, the fluorescence emissions at 620 nm and 665 nm after excitation at 350 nm were measured in a TR-FRET reader, e.g. a Rubystar (BMG Labtechnologies, Offenburg, Germany) or a Viewlux (Perkin-Elmer). The ratio of the emissions at 665 nm and at 622 nm was taken as the measure for the amount of phosphorylated substrate.

T1 sequence (Q9BUB5 1-424 isoform Q9BUB5-2 T344D): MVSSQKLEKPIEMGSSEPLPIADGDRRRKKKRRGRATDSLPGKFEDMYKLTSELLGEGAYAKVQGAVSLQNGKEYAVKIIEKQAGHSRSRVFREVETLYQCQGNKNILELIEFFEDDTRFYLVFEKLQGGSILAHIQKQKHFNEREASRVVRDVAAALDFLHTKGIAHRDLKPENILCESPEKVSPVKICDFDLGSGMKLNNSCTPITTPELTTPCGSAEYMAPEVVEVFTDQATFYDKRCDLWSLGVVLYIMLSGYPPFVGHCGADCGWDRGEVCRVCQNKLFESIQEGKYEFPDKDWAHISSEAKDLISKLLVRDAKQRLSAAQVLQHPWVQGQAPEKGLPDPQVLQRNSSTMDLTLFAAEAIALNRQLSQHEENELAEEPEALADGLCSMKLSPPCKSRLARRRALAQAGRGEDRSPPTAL

SMILES	IC50 [nM]	Activity-Ratio MKNK1
C[C@H]1CN(C(=O)[C@H]2CCc3c(sc4ncnc(Nc5cc6cn[nH]c6cc5F)c34)C2)C[C@H](C)O1 [Example 225, [(2S,6S)-2,6-Dimethylmorpholin-4-yl]{(7S)-4-[(6-fluoro-1H-indazol-5-yl)amino]-5,6,7,8-tetrahydro[1]benzothieno[2,3-d]pyrimidin-7-yl}methanone]	8.7	
CC(C)Oc1cc2[nH]ncc2cc1Nc1ncnc2sc3c(c12)CC[C@H](C(=O)N(C)C)C3 [Example 78, (7S)—N,N-Dimethyl-4-{[6-(propan-2-yloxy)-1H-indazol-5-yl]amino}-5,6,7,8-tetrahydro[1]benzothieno[2,3-d]pyrimidine-7-carboxamide]	0.3	42.9
CN(C)C(=O)[C@H]1CCc2c(sc3ncnc(Nc4cc5cn[nH]c5cc4O)c23)C1 [Example 96, (7S)-4-[(6-Hydroxy-1H-indazol-5-yl)amino]-N,N-dimethyl-5,6,7,8-tetrahydro[1]benzothieno[2,3-d]pyrimidine-7-carboxamide]	0.7	
CN(C)C(=O)[C@H]1CCc2c(sc3ncnc(Nc4cc5cn[nH]c5cc4OC4CN(C(=O)OC(C)(C)C)C4)c23)C1 [Example 265, tert-Butyl 3-[(5-{[(7S)-7-(dimethylcarbamoyl)-5,6,7,8-tetrahydro[1]benzothieno[2,3-d]pyrimidin-4-yl]amino}-1H-indazol-6-yl)oxy]azetidine-1-carboxylate]	0.9	
CN(CCC(F)(F)F)C(=O)[C@H]1CCc2c(sc3ncnc(Nc4ccc5[nH]ncc5c4)c23)C1 [Example 6, (7S)-4-(1H-Indazol-5-ylamino)-N-methyl-N-(3,3,3-trifluoropropyl)-5,6,7,8-tetrahydro[1]benzothieno[2,3-d]pyrimidine-7-carboxamide]	11	
CCOc1cc2[nH]ncc2cc1Nc1ncnc2sc3c(c12)CC[C@H](C(=O)N1C[C@H]2C[C@@H]1CO2)C3 [Example 71, {(7S)-4-[(6-Ethoxy-1H-indazol-5-yl)amino]-5,6,7,8-tetrahydro[1]benzothieno[2,3-d]pyrimidin-7-yl}[(1R,4R)-2-oxa-5-azabicyclo[2.2.1]hept-5-yl]methanone]	0.9	
C[C@@H]1CN(C(=O)[C@H]2CCc3c(sc4ncnc(Nc5cc6cn[nH]c6cc5N(C)C)c34)C2)C[C@@H](C)O1 [Example 240, [(7S)-4-{[6-(Dimethylamino)-1H-indazol-5-yl]amino}-5,6,7,8-tetrahydro[1]benzothieno[2,3-d]pyrimidin-7-yl][(2R,6R)-2,6-dimethylmorpholin-4-yl]methanone]	0.2	
CN(C)C(=O)[C@H]1CCc2c(sc3ncnc(Nc4cc5cn[nH]c5cc4OC4CCCCC4)c23)C1 [Example 202, (7S)-4-{[6-(Cyclohexyloxy)-1H-indazol-5-yl]amino}-N,N-dimethyl-5,6,7,8-tetrahydro[1]benzothieno[2,3-d]pyrimidine-7-carboxamide]	1	
CN(C)C(=O)[C@H]1CCc2c(sc3ncnc(Nc4cc5cn[nH]c5cc4F)c23)C1 [Example 228, (7S)-4-[(6-Fluoro-1H-indazol-5-yl)amino]-N,N-dimethyl-5,6,7,8-tetrahydro[1]benzothieno[2,3-d]pyrimidine-7-carboxamide]	6.1	
C[C@H](CN)Oc1cc2[nH]ncc2cc1Nc1ncnc2sc3c(c12)CC[C@H](C(=O)N(C)C)C3 [Example 152, (7S)-4-[(6-{[(2R)-1-Aminopropan-2-yl]oxy}-1H-indazol-5-yl)amino]-N,N-dimethyl-5,6,7,8-tetrahydro[1]benzothieno[2,3-d]pyrimidine-7-carboxamide]	0.6	
COc1cc2[nH]ncc2cc1Nc1ncnc2sc3c(c12)CC[C@H](C(=O)N1C[C@H]2C[C@@H]1CN2C)C3 [Example 121, {(7S)-4-[(6-Methoxy-1H-indazol-5-yl)amino]-5,6,7,8-tetrahydro[1]benzothieno[2,3-d]pyrimidin-7-yl}[(1R,4R)-5-methyl-2,5-diazabicyclo[2.2.1]hept-2-yl]methanone]	0.3	
CN(C)CCN(C)c1cc2[nH]ncc2cc1Nc1ncnc2sc3c(c12)CC[C@H](C(=O)N(C)C)C3 [Example 151, (7S)-4-[(6-{[2-(Dimethylamino)ethyl](methyl)amino}-1H-indazol-5-yl)amino]-N,N-dimethyl-5,6,7,8-tetrahydro[1]benzothieno[2,3-d]pyrimidine-7-carboxamide]	39.6	
CN(C)C(=O)[C@H]1CCc2c(sc3ncnc(Nc4ccc5[nH]ncc5c4)c23)C1 [Example 1, (7S)-4-(1H-Indazol-5-ylamino)-N,N-dimethyl-5,6,7,8-tetrahydro[1]benzothieno[2,3-d]pyrimidine-7-carboxamide]	14.3	8.3
CCCSc1cc2[nH]ncc2cc1Nc1ncnc2sc3c(c12)CC[C@H](C(=O)N(C)C)C3 [Example 192, (7S)—N,N-Dimethyl-4-{[6-(propylsulfanyl)-1H-indazol-5-yl]amino}-5,6,7,8-tetrahydro[1]benzothieno[2,3-d]pyrimidine-7-carboxamide]	2.2	
CCOc1cc2[nH]ncc2cc1Nc1ncnc2sc3c(c12)CC[C@H](C(=O)N(C)CC(F)F)C3 [Example 65, (7S)—N-(2,2-Difluoroethyl)-4-[(6-ethoxy-1H-indazol-5-yl)amino]-N-methyl-5,6,7,8-tetrahydro[1]benzothieno[2,3-d]pyrimidine-7-carboxamide]	0.6	
COc1cc2[nH]ncc2cc1Nc1ncnc2sc3c(c12)CC[C@H](C(=O)N(C)CCCn1ccnc1)C3 [Example 170, (7S)—N-[3-(1H-Imidazol-1-yl)propyl]-4-[(6-methoxy-1H-indazol-5-yl)amino]-N-methyl-5,6,7,8-tetrahydro[1]benzothieno[2,3-d]pyrimidine-7-carboxamide]	0.6	
CN(C)C(=O)[C@H]1CCc2c(sc3ncnc(Nc4cc5cn[nH]c5cc4NCC(C)(C)O)c23)C1 [Example 100, (7S)-4-({6-[(2-Hydroxy-2-methylpropyl)amino]-1H-indazol-5-yl}amino)-N,N-dimethyl-5,6,7,8-tetrahydro[1]benzothieno[2,3-d]pyrimidine-7-carboxamide]	882	
CCN(C)C(=O)[C@H]1CCc2c(sc3ncnc(Nc4cc5cn[nH]c5cc4OC)c23)C1 [Example 24, (7S)—N-Ethyl-4-[(6-methoxy-1H-indazol-5-yl)amino]-N-methyl-5,6,7,8-tetrahydro[1]benzothieno[2,3-d]pyrimidine-7-carboxamide]	0.2	39.1
C[C@H]1CN(C(=O)[C@H]2CCc3c(sc4ncnc(Nc5cc6cn[nH]c6cc5Br)c34)C2)C[C@H](C)O1 [Example 236, {(7S)-4-[(6-Bromo-1H-indazol-5-yl)amino]-5,6,7,8-tetrahydro[1]benzothieno[2,3-d]pyrimidin-7-yl}[(2S,6S)-2,6-dimethylmorpholin-4-yl]methanone]	14.6	
CC(C)OC(=O)NCCOc1cc2[nH]ncc2cc1Nc1ncnc2sc3c(c12)CC[C@H](C(=O)N(C)C)C3 [Example 260, Propan-2-yl {2-[(5-{[(7S)-7-(dimethylcarbamoyl)-5,6,7,8-tetrahydro[1]benzothieno[2,3-d]pyrimidin-4-yl]amino}-1H-indazol-6-yl)oxy]ethyl}carbamate]	0.2	
COc1cc2[nH]ncc2cc1Nc1ncnc2sc3c(c12)CC[C@H](C(=O)N1CC[C@@H](N(C)C)C1)C3 [Example 179, [(3R)-3-(Dimethylamino)pyrrolidin-1-yl]{(7S)-4-[(6-methoxy-1H-indazol-5-yl)amino]-5,6,7,8-tetrahydro[1]benzothieno[2,3-d]pyrimidin-7-yl}methanone]	0.4	
COc1cc2[nH]ncc2cc1Nc1ncnc2sc3c(c12)CC[C@H](C(=O)N(C)C(C)C)C3 [Example 26, (7S)-4-[(6-Methoxy-1H-indazol-5-yl)amino]-N-methyl-N-(propan-2-yl)-5,6,7,8-tetrahydro[1]benzothieno[2,3-d]pyrimidine-7-carboxamide]	0.2	172.9
CN(C)C(=O)[C@H]1CCc2c(sc3ncnc(Nc4cc5cn[nH]c5cc4OC4CCCC4)c23)C1 [Example 199, (7S)-4-{[6-(Cyclopentyloxy)-1H-indazol-5-yl]amino}-N,N-dimethyl-5,6,7,8-tetrahydro[1]benzothieno[2,3-d]pyrimidine-7-carboxamide]	0.2	
